Reference: paper PMC10892536, “Establishment and Validation of a Transdermal Drug Delivery System for the Anti-Depressant Drug Citalopram Hydrobromide” (Molecules, 2024)
Structures can show the parent of a compound that is named as a salt.

Assay: In vivo pharmacokinetic study in rabbits
Conditions: oral gavage, n = 6
Method: CTH in the samples was quantified using a CoM 6000 HPLC system (CoMetro Technology, South Plainfield, NJ, USA) with a Comatex C18-AB column (250 × 4.6 mm, 5 μm; 115 Corp, Plainfield, NJ, USA) at 238 nm. The mobile phase was 0.1 mol/L acetonitrile, 0.1 mol/L ammonium acetate, and 0.01 mol/L heptane sodium sulfonate at a ratio of 5:5:1 (v/v). The flow rate was 1.0 mL/min, and the column temperature was 25 °C. All sample solutions were degassed and the injection volume was maintained at 20 μL [44, 53]. The particular application detail on the CoM 6000 HPLC system referred to a previous introduction in our laboratory.
The rabbits were assigned to one of the following three groups: A, B, or C. The abdominal hair of the rabbits in groups B and C was shaved off with an electric hair remover, and after cleaning the skin with normal saline, the optimized TDDS was applied to the abdomens of […] in group B, and blank patches were applied to the abdomens of rabbits in group C. Group A was administered CTH by oral gavage. The oral gavage procedure involved fixing the rabbits with an animal fixator and placing a special mouth expander with a rope attached to their mouth. An elastic rubber catheter was inserted through a small round hole in the mouth expander and pushed into the esophagus along the posterior pharyngeal wall. A solution consistent with the TDDS concentration was added. After gastric perfusion, the catheter and mouth opener were removed. Next, 1 mL aliquots of blood were collected from the marginal auricular vein of the experimental animals at different time intervals (1, 2, 4, 7, 12, and 24 h), placed in heparinized tubes, and centrifuged at 1500× g for 10 min. The resulting plasma supernatant was stored at −70 °C until further analysis. HPLC analyses were carried out by transferring 200 μL of the supernatant to a 1.5 mL polyethylene centrifuge tube. The tubes were then mixed with 300 μL acetonitrile, centrifuged at 2500× g for 10 min, and filtered through a 0.22 μm membrane.
The pharmacokinetic parameters of the conventional oral and sustained-release transdermal preparations were analyzed, including the maximum plasma concentration of the drug (Cmax), the time to reach the Cmax (Tmax), the mean residence time (MRT), and the area under the plasma concentration–time curve from time 0 to t (AUC(0-t)). Two-tailed Student’s t-tests were performed for the Cmax and AUC(0-t) analyses, and a non-parametric test was performed for the Tmax analysis. The AUC(0-t) was calculated using the trapezoidal rule.

## CN(C)CCCC1(c2ccc(F)cc2)OCc2cc(C#N)ccc21 (stereo not shown) [CTH, citalopram hydrobromide]
  AUC(0-t): 8460.37 ± 996.43 ng/h/mL
rabbit, plasma
  Cmax: 4900 ± 396 ng/mL
  MRT: 2.4 ± 0.25 h
  Tmax: 1 h
